Biological target: T1, PCP site on NMDA receptor
T1 construct: gene Grin1; PCP (channel pore) site of the NMDA receptor complex
Assay: PCP-site binding assay
Conditions: read-out: PCP site / IC50/Ki
Source text: PCP-site binding assay on PCP site on NMDA receptor

Compound	IC50 [µM]
CNC1(c2ccccc2Cl)CCCC1=O (centres unmarked) [Ketamir-2, 1-(2-chlorophenyl)-N-methyl-2-oxocyclopentan-1-aminium]	~100
Nor-Ketamir	~470

From article PMC12231361, “KETAMIR-2, a new molecular entity and novel ketamine analog” (Frontiers in Pharmacology, 2025)
